Measured values: PubChem BioAssay AID248 (DTP/NCI, 2004)
“And” between values parts separate entries of the source, which are not always exact repeats. Identical values can stand only once. Inconclusive results and toxic doses are left out.

Tested on: L1210 leukemia ip in BDF1 mice, survival T/C
Experiment: NCI In Vivo Anticancer Drug Screen. Data for tumor model L1210 Leukemia (intraperitoneal) in B6D2F1 (BDF1) mice
Details: endpoint: mean survival time, higher = longer survival
Procedure, shortened: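 Antitumor effect is assessed in tumor-bearing animals. Survival in the compound arm is compared with a vehicle-dosed control arm and expressed as their quotient.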

[1] = dose: 100.0 mg/kg/injection, schedule: Q04DX003 (ip), vehicle: Klucel (hydroxypropylcellulose) (HPC)
[2] = dose: 200.0 mg/kg/injection, schedule: Q04DX003 (ip), vehicle: Klucel (hydroxypropylcellulose) (HPC)
[3] = dose: 100.0 mg/kg/injection, schedule: Q04DX003 (ip), vehicle: saline with Tween-80
[4] = dose: 400.0 mg/kg/injection, schedule: Q04DX003 (ip), vehicle: saline with Tween-80
[5] = dose: 50.0 mg/kg/injection, schedule: Q01DX009 (ip), vehicle: saline
[6] = dose: 100.0 mg/kg/injection, schedule: Q01DX009 (ip), vehicle: saline
[7] = dose: 100.0 mg/kg/injection, schedule: Q04DX002 (ip), vehicle: saline
[8] = dose: 200.0 mg/kg/injection, schedule: Q01DX009 (ip), vehicle: saline
[9] = dose: 200.0 mg/kg/injection, schedule: Q04DX002 (ip), vehicle: saline
[10] = dose: 400.0 mg/kg/injection, schedule: Q01DX009 (ip), vehicle: saline
[11] = dose: 400.0 mg/kg/injection, schedule: Q04DX002 (ip), vehicle: saline
[12] = dose: 100.0 mg/kg/injection, schedule: Q01DX001 (ip), vehicle: other
[13] = dose: 200.0 mg/kg/injection, schedule: Q01DX001 (ip), vehicle: other
[14] = dose: 400.0 mg/kg/injection, schedule: Q01DX001 (ip), vehicle: other
[15] = dose: 400.0 mg/kg/injection, schedule: Q04DX003 (ip), vehicle: Klucel (hydroxypropylcellulose) (HPC)
[16] = dose: 100.0 mg/kg/injection, schedule: Q01DX009 (ip), vehicle: Klucel (hydroxypropylcellulose) (HPC)
[17] = dose: 200.0 mg/kg/injection, schedule: Q01DX009 (ip), vehicle: Klucel (hydroxypropylcellulose) (HPC)
[18] = dose: 200.0 mg/kg/injection, schedule: Q04DX003 (ip), vehicle: saline with Tween-80
[19] = dose: 400.0 mg/kg/injection, schedule: Q01DX009 (ip), vehicle: Klucel (hydroxypropylcellulose) (HPC)
[20] = dose: 100.0 mg/kg/injection, schedule: Q01DX001 (ip), vehicle: saline
[21] = dose: 200.0 mg/kg/injection, schedule: Q01DX001 (ip), vehicle: saline

O=C(O)CNCCN1CC(=O)N(Cc2ccccc2)C1=S
T/C (dose: 100.0 mg/kg/injection, schedule: Q01DX001 (ip), vehicle: carboxymethylcellulose (CMC)): 100 % of control | T/C (dose: 100.0 mg/kg/injection, schedule: Q01DX009 (ip), vehicle: carboxymethylcellulose (CMC)): 104 % of control | T/C (dose: 100.0 mg/kg/injection, schedule: Q04DX002 (ip), vehicle: carboxymethylcellulose (CMC)): 94 % of control and 103 % of control | T/C (dose: 100.0 mg/kg/injection, schedule: Q04DX003 (ip), vehicle: carboxymethylcellulose (CMC)): 100 % of control | T/C (dose: 200.0 mg/kg/injection, schedule: Q01DX001 (ip), vehicle: carboxymethylcellulose (CMC)): 103 % of control | T/C (dose: 200.0 mg/kg/injection, schedule: Q01DX009 (ip), vehicle: carboxymethylcellulose (CMC)): 93 % of control and 101 % of control | T/C (dose: 200.0 mg/kg/injection, schedule: Q04DX002 (ip), vehicle: carboxymethylcellulose (CMC)): 103 % of control and 88 % of control | T/C (dose: 200.0 mg/kg/injection, schedule: Q04DX003 (ip), vehicle: carboxymethylcellulose (CMC)): 98 % of control | T/C (dose: 400.0 mg/kg/injection, schedule: Q01DX001 (ip), vehicle: carboxymethylcellulose (CMC)): 101 % of control | T/C (dose: 400.0 mg/kg/injection, schedule: Q01DX009 (ip), vehicle: carboxymethylcellulose (CMC)): 96 % of control | T/C (dose: 400.0 mg/kg/injection, schedule: Q04DX002 (ip), vehicle: carboxymethylcellulose (CMC)): 98 % of control and 103 % of control

CC12CCCCC1C(C(C)(C)OC(=O)c1ccc([N+](=O)[O-])cc1)CC2 (stereo not drawn)
T/C (dose: 25.0 mg/kg/injection, schedule: Q04DX002 (ip), vehicle: Klucel (hydroxypropylcellulose) (HPC)): 105 % of control | T/C (dose: 50.0 mg/kg/injection, schedule: Q04DX002 (ip), vehicle: Klucel (hydroxypropylcellulose) (HPC)): 99 % of control | T/C (dose: 100.0 mg/kg/injection, schedule: Q04DX002 (ip), vehicle: Klucel (hydroxypropylcellulose) (HPC)): 89 % of control

NNc1n[nH]c(=O)n1N
T/C [1]: 113 % of control | T/C [2]: 100 % of control

CC1C2CCC(C2)C1C(=O)O (stereo not drawn)
T/C (dose: 100.0 mg/kg/injection, schedule: Q01DX009 (ip), vehicle: other): 97 % of control | T/C [3]: 96 % of control | T/C (dose: 200.0 mg/kg/injection, schedule: Q01DX009 (ip), vehicle: other): 109 % of control | T/C (dose: 400.0 mg/kg/injection, schedule: Q01DX009 (ip), vehicle: other): 95 % of control | T/C [4]: 87 % of control

O=C(O)CSC1=NCCN1
T/C (dose: 25.0 mg/kg/injection, schedule: Q01DX009 (ip), vehicle: saline): 91 % of control | T/C [5]: 92 % of control | T/C (dose: 50.0 mg/kg/injection, schedule: Q04DX002 (ip), vehicle: saline): 106 % of control and 113 % of control | T/C [6]: 90 % of control | T/C [7]: 100 % of control and 113 % of control | T/C [8]: 93 % of control | T/C [9]: 260 % of control and 91 % of control | T/C [10]: 91 % of control | T/C [11]: 106 % of control

COc1ccc(OC)c([N+](=O)[O-])c1C=O
T/C [12]: 92 % of control | T/C [13]: 90 % of control | T/C [14]: 90 % of control

O=[N+]([O-])c1ccc([As](=O)(O)c2ccc([N+](=O)[O-])cc2)cc1
T/C (dose: 75.0 mg/kg/injection, schedule: Q01DX001 (ip), vehicle: saline): 95 % of control | T/C (dose: 150.0 mg/kg/injection, schedule: Q01DX001 (ip), vehicle: saline): 100 % of control

Cc1ccc(S(=O)(=O)Nc2ccc(Cl)c(Cl)c2)cc1
T/C [1]: 97 % of control | T/C [2]: 96 % of control | T/C [15]: 94 % of control

O=C1NC(c2ccc3ccccc3n2)Nc2ccccc21 (stereo not drawn)
T/C (dose: 50.0 mg/kg/injection, schedule: Q01DX009 (ip), vehicle: Klucel (hydroxypropylcellulose) (HPC)): 92 % of control | T/C [16]: 93 % of control | T/C (dose: 150.0 mg/kg/injection, schedule: Q01DX009 (ip), vehicle: Klucel (hydroxypropylcellulose) (HPC)): 90 % of control

Cc1ccc2c(c1)P(=O)(O)c1cc(F)ccc1O2
T/C [5]: 105 % of control | T/C [6]: 112 % of control | T/C [8]: 112 % of control | T/C [10]: 108 % of control

CCCCCCCCCCCCCCCCCCNC(=O)CCl
T/C [16]: 94 % of control | T/C [1]: 92 % of control | T/C [17]: 89 % of control | T/C [2]: 90 % of control | T/C [15]: 97 % of control

O=C(O)/C(=C\c1ccc(Cl)cc1)c1ccc(Cl)cc1
T/C [16]: 104 % of control | T/C [1]: 95 % of control | T/C [17]: 89 % of control | T/C [2]: 91 % of control | T/C [15]: 95 % of control

NC(=O)O/N=C/c1ccccn1
T/C [3]: 105 % of control | T/C [18]: 103 % of control | T/C [4]: 106 % of control

CC(C)(C)C(/C=N/N=C(N)N)=N\N=C(N)N
T/C (dose: 15.0 mg/kg/injection, schedule: Q01DX Z (ip), vehicle: methylcellulose (MC)): 105 % of control | T/C (dose: 30.0 mg/kg/injection, schedule: Q01DX Z (ip), vehicle: methylcellulose (MC)): 91 % of control | T/C (dose: 60.0 mg/kg/injection, schedule: Q01DX Z (ip), vehicle: methylcellulose (MC)): 94 % of control | T/C (dose: 120.0 mg/kg/injection, schedule: Q01DX Z (ip), vehicle: methylcellulose (MC)): 91 % of control | T/C (dose: 600.0 mg/kg/injection, schedule: Q01DX Z (oral), vehicle: methylcellulose (MC)): 110 % of control | T/C (dose: 720.0 mg/kg/injection, schedule: Q01DX Z (oral), vehicle: methylcellulose (MC)): 98 % of control

Cc1cc(C)c(NC(=O)NC(C)C)c(C)c1
T/C [16]: 104 % of control | T/C [1]: 98 % of control | T/C [17]: 101 % of control | T/C [2]: 105 % of control | T/C [19]: 91 % of control | T/C [15]: 91 % of control

CCN(CC)CC(Cl)COc1ccccc1C (stereo not drawn)
T/C [20]: 91 % of control | T/C [21]: 94 % of control

COC(=O)c1cc(=O)c2cc(C(C)=O)ccc2[nH]1
T/C [12]: 95 % of control | T/C [13]: 94 % of control and 89 % of control | T/C [14]: 105 % of control and 90 % of control

CCCCCCCCCCCCCCCCCC(=O)N/N=C/c1ccc(OCC)c(OC)c1
T/C [16]: 86 % of control | T/C [17]: 91 % of control | T/C [19]: 88 % of control

CC(C(=O)O)C(C)(O)C(C)(C)C (stereo not drawn)
T/C [7]: 104 % of control | T/C [9]: 97 % of control | T/C [11]: 108 % of control

O=c1oc2ccccc2c(O)c1C(C/C(=N/O)c1ccccc1)c1ccccc1 (stereo not drawn)
T/C [3]: 96 % of control | T/C [18]: 91 % of control | T/C [4]: 88 % of control

CSCCCCCCSC
T/C [5]: 101 % of control | T/C [6]: 96 % of control | T/C [8]: 90 % of control

O=Nc1nc2ncccn2c1-c1ccccc1
T/C (dose: 50.0 mg/kg/injection, schedule: Q01DX001 (ip), vehicle: saline): 97 % of control | T/C [20]: 101 % of control | T/C [21]: 103 % of control | T/C (dose: 400.0 mg/kg/injection, schedule: Q01DX001 (ip), vehicle: saline): 109 % of control

Cc1ccc(Cl)cc1NC(=O)Nc1cccc2c(O)cccc12
T/C (dose: 100.0 mg/kg/injection, schedule: Q01DX001 (ip), vehicle: saline with Tween-80): 100 % of control | T/C (dose: 100.0 mg/kg/injection, schedule: Q01DX009 (ip), vehicle: saline with Tween-80): 90 % of control and 92 % of control | T/C (dose: 100.0 mg/kg/injection, schedule: Q04DX002 (ip), vehicle: saline with Tween-80): 94 % of control and 87 % of control | T/C [3]: 88 % of control | T/C (dose: 200.0 mg/kg/injection, schedule: Q01DX001 (ip), vehicle: saline with Tween-80): 89 % of control | T/C (dose: 200.0 mg/kg/injection, schedule: Q01DX009 (ip), vehicle: saline with Tween-80): 103 % of control and 90 % of control | T/C (dose: 200.0 mg/kg/injection, schedule: Q04DX002 (ip), vehicle: saline with Tween-80): 97 % of control and 89 % of control | T/C [18]: 98 % of control | T/C (dose: 400.0 mg/kg/injection, schedule: Q01DX001 (ip), vehicle: saline with Tween-80): 98 % of control | T/C (dose: 400.0 mg/kg/injection, schedule: Q01DX009 (ip), vehicle: saline with Tween-80): 95 % of control | T/C (dose: 400.0 mg/kg/injection, schedule: Q04DX002 (ip), vehicle: saline with Tween-80): 94 % of control and 95 % of control | T/C [4]: 101 % of control
